One block for each molecule: values may come before it. Peptide text beside a SMILES is read from it.
Key:
[1] = Stability analysis by 1H NMR of samples exposed to air and light; settings: ambient temperature
Experimental: Stability analysis was performed using 1H NMR (400 MHz) with acetic acid-d4 at various time point (typically days 1, 14, 30 and 60) using samples exposed to air and light at ambient temperature (clear vials with no caps).

Balb/C mice = experiment: Ocular irritation after topical dosing to the cornea (hyperemia, squinting, discharge, lid swelling); format: in vivo; settings: for Hyperemia: 3 μL drop in each eye four times daily for 3 days
Experimental: In an embodiment where the ophthalmic formulation is an aqueous formulation, it has been determined in mice that certain formulations can be administered to the surface of the eye without producing irritation that would make them unsuitable for such application. Irritation parameters of TP-211-1, TP-212-1, TP-311-1 and TP-312-1 related to hyperemia, squinting, and discharge were determined in Balb/C mice. Mice were dosed topically to the cornea using a calibrated micropipette, with a 3 μL drop of treatment in each eye four times daily for 3 consecutive days at various concentrations.
TP-211-1 is Lysyl-lysine EPA. TP-212-1 is Lysyl-lysine bis-EPA. TP-311-1 is Lysyl-lysine DHA. TP-312-1 is Lysyl-lysine bis-DHA. The study drugs were prepared using phosphate buffered saline (PBS) to reach target concentrations ranging from 0.1% to 1.0%.
The animals were monitored for scratching at the eye or any other abnormal behavior post-dose. Ocular exams were conducted on Days 1 and 3 with use of a Micron III camera system to take high resolution videos of the right eye of each animal Clinical signs including but not limited to hyperemia, discharge, lid swelling, and squinting were evaluated by trained personnel who was masked as to group assignment. Each clinical sign was graded on a scale of 0-4, with the exception of lid swelling which was graded on a scale of 0-2. Scores were averaged and are expressed as the mean±SEM for each group. Statistical significance was assessed between the treatment arms and the vehicle group. Any significance is noted by asterisks (*=p<0.05, **=p<0.01, ***=p<0.001).

[2] = Oral pharmacokinetics (oral gavage), plasma free EPA or free DHA; format: in vivo, Sprague-Dawley rats; settings: oral gavage 40 mg/kg, rat
Experimental: Experiments via Oral Gavage: Oral pharmacokinetic parameters of TP-212 (Lysyl-Lysine Bis-EPA), TP-312 (Lysyl-Lysine Bis-DHA), EPA-EE, EPA FFA and DHA FFA were determined in Sprague-Dawley rats. EPA-EE is 97% pure ethyl ester form of eicosapentaenoic acid. It is the principal polyunsaturated fatty acid in Vascepa, an Omega-3 compound approved in the U.S. for the treatment of severe hypertriglyceridemia. EPA FFA is 97% pure free fatty acid form of eicosapentaenoic acid and DHA FFA is 98% pure free fatty acid DHA. EPA FFA and DHA FFA are the two principal poly-unsaturated fatty acids in Epanova, an Omega-3 compound approved in the U.S. for the treatment of severe hypertriglyceridemia. The subject drugs were administered by oral gavage as an aqueous solution in de-ionized water to 6 Sprague-Dawley rats per group (3 males and 3 females). Rats were dosed at 40 mg/kg. Blood samples were obtained from each rat by jugular vein catheter. Samples were collected at pre-dose and at 0.25, 0.5, 1, 2, 4, 8, 12 and 18 hours post dose. Blood samples were centrifuged to separate red blood cells and the resulting plasma samples were analyzed for free EPA or free DHA. Free EPA or […] extracted from rat plasma with hexane at acidic condition without hydrolysis. Detection was by MS-MS monitoring of negative ion for EPA or DHA. Calculated pharmacokinetic values are mean values from 6 rats for each study drug.
For all figures and tables, the data are adjusted as follows for comparative purposes. First, the actual plasma levels are baseline adjusted. Thus, for each study arm, the pre-dose level (time=0) is subtracted from the actual plasma levels at each time point, with negative values adjusted to zero. Second, these baseline adjusted values are further adjusted to be molar dose equivalent on a comparative basis among the study arms with respect to EPA or DHA payload (i.e., as if equal amounts of free fatty acid EPA or DHA are administered in each study arm).

[3] = 0 h (pre-dose), molar dose equivalent, baseline adjusted
[4] = 0.25 h (15 min), molar dose equivalent, baseline adjusted
[5] = 0.5 h (30 min), molar dose equivalent, baseline adjusted
[6] = 1 h (60 min), molar dose equivalent, baseline adjusted
[7] = 2 h (120 min), molar dose equivalent, baseline adjusted
[8] = 4 h (240 min), molar dose equivalent, baseline adjusted
[9] = 8 h, molar dose equivalent, baseline adjusted
[10] = 12 h, molar dose equivalent, baseline adjusted
[11] = 18 h, molar dose equivalent, baseline adjusted
[12] = molar dose equivalent, baseline adjusted

SMILES: CCC=CCC=CCC=CCC=CCC=CCC=CCCC(=O)O.CCC=CCC=CCC=CCC=CCC=CCC=CCCC(=O)O.N=C(N)NCCCC(N)C(=O)NC(CCCNC(=N)N)C(=O)O [Arginyl-arginine Bis-DHA]
- Stability by NMR (amount of sample remaining relative to original sample) ([1]; Day 3): 1 (1 = >95%)
- Stability by NMR (amount of sample remaining relative to original sample) ([1]; Day 14): 1 (1 = >95%)
- Stability by NMR (amount of sample remaining relative to original sample) ([1]; Day 30): 1 (1 = >95%)
- Stability by NMR (amount of sample remaining relative to original sample) ([1]; Day 60): 1 (1 = >95%)

SMILES: CCC=CCC=CCC=CCC=CCC=CCCCC(=O)O.CCC=CCC=CCC=CCC=CCC=CCCCC(=O)O.N=C(N)NCCCC(N)C(=O)NC(CCCNC(=N)N)C(=O)O (stereo not drawn) [Arginyl-arginine Bis-EPA] (H-Arg-Arg-OH; configuration not given here)
- Stability by NMR (amount of sample remaining relative to original sample) ([1]; Day 3): 1 (1 = >95%)
- Stability by NMR (amount of sample remaining relative to original sample) ([1]; Day 14): 1 (1 = >95%)
- Stability by NMR (amount of sample remaining relative to original sample) ([1]; Day 30): 1 (1 = >95%)
- Stability by NMR (amount of sample remaining relative to original sample) ([1]; Day 60): 1 (1 = >95%)

SMILES: CCC=CCC=CCC=CCC=CCC=CCC=CCCC(=O)O.CCC=CCC=CCC=CCC=CCC=CCC=CCCC(=O)O.N=C(N)NCCCC(N)C(=O)NC(CCCCN)C(=O)O [Arginyl-lysine Bis-DHA]
- Stability by NMR (amount of sample remaining relative to original sample) ([1]; Day 3): 1 (1 = >95%)
- Stability by NMR (amount of sample remaining relative to original sample) ([1]; Day 14): 1 (1 = >95%)
- Stability by NMR (amount of sample remaining relative to original sample) ([1]; Day 30): 1 (1 = >95%)
- Stability by NMR (amount of sample remaining relative to original sample) ([1]; Day 60): 1 (1 = >95%)

SMILES: CCC=CCC=CCC=CCC=CCC=CCCCC(=O)O.CCC=CCC=CCC=CCC=CCC=CCCCC(=O)O.N=C(N)NCCCC(N)C(=O)NC(CCCCN)C(=O)O [Arginyl-lysine Bis-EPA]
- Stability by NMR (amount of sample remaining relative to original sample) ([1]; Day 3): 1 (1 = >95%)
- Stability by NMR (amount of sample remaining relative to original sample) ([1]; Day 14): 1 (1 = >95%)
- Stability by NMR (amount of sample remaining relative to original sample) ([1]; Day 30): 1 (1 = >95%)
- Stability by NMR (amount of sample remaining relative to original sample) ([1]; Day 60): 1 (1 = >95%)

SMILES: CC/C=C\C/C=C\C/C=C\C/C=C\C/C=C\CCCC(=O)O.NCCCC[C@H](NC(=O)[C@@H](N)CCCCN)C(=O)O [Compound 1, (L,L) Lysyl-lysine EPA salt (mono)]
- Hyperemia (Balb/C mice; 0.1% concentration in PBS): maintained baseline levels of hyperemia throughout both evaluations
- Hyperemia (Balb/C mice; 0.25% concentration in PBS): maintained baseline levels of hyperemia throughout both evaluations
- Hyperemia (Balb/C mice; 0.5% concentration in PBS): some initial increase in hyperemia
- Squinting (Balb/C mice; all concentrations tested, topical to cornea): no statistically significant changes in squinting
- Hyperemia at last dose / final evaluation (Balb/C mice; concentrations that showed an initial increase or all tested, last dose / final evaluation (Day 3)): returned to baseline levels by the last dose on Day 3
- Concentration at which not irritating / well tolerated (Balb/C mice; topical to cornea four times daily for 3 days): less than 0.5%
- Stability by NMR (amount of sample remaining relative to original sample) ([1]; Day 3): 1 (1 = >95%)
- Stability by NMR (amount of sample remaining relative to original sample) ([1]; Day 14): 1 (1 = >95%)
- Stability by NMR (amount of sample remaining relative to original sample) ([1]; Day 30): 1 (1 = >95%)
- Stability by NMR (amount of sample remaining relative to original sample) ([1]; Day 60): 1 (1 = >95%)

SMILES: CC/C=C\C/C=C\C/C=C\C/C=C\C/C=C\CCCC(=O)O.NCCCC[C@H](NC(=O)[C@@H](N)CCCCN)C(=O)O.O=C(O)c1cccnc1 [Compound 7, (L,L) Lysyl-lysine EPA niacin]
- Stability by NMR (amount of sample remaining relative to original sample) ([1]; Day 3): 1 (1 = >95%)
- Stability by NMR (amount of sample remaining relative to original sample) ([1]; Day 14): 1 (1 = >95%)
- Stability by NMR (amount of sample remaining relative to original sample) ([1]; Day 30): 1 (1 = >95%)
- Stability by NMR (amount of sample remaining relative to original sample) ([1]; Day 60): 1 (1 = >95%)

SMILES: CC/C=C\C/C=C\C/C=C\C/C=C\C/C=C\C/C=C\CCC(=O)O [DHA-FFA, DHA]
- Tmax (free DHA) [2]: 4 h
- Plasma level of free DHA [2, 3]: 0 ng/mL
- Plasma level of free DHA [2, 4]: 0 ng/mL
- Plasma level of free DHA [2, 5]: 1800 ng/mL
- Plasma level of free DHA [2, 6]: 1800 ng/mL
- Plasma level of free DHA [2, 7]: 2200 ng/mL
- Plasma level of free DHA [2, 8]: 3400 ng/mL
- Plasma level of free DHA [2, 9]: 1700 ng/mL
- Plasma level of free DHA [2, 10]: 2100 ng/mL
- Plasma level of free DHA [2, 11]: 1200 ng/mL
- AUC 0-1 hrs (free DHA) [2, 12]: 1100 ng·h/mL
- AUC 0-4 hrs (free DHA) [2, 12]: 8700 ng·h/mL
- AUC 0-18 hrs (free DHA) [2, 12]: 36300 ng·h/mL
- Cmax (free DHA) [2, 12]: 3400 ng/mL

- Tmax (free EPA) [2]: 4 h
- Plasma level of free EPA [2, 3]: 0 ng/mL
- Plasma level of free EPA [2, 4]: 300 ng/mL
- Plasma level of free EPA [2, 5]: 500 ng/mL
- Plasma level of free EPA [2, 6]: 700 ng/mL
- Plasma level of free EPA [2, 7]: 800 ng/mL
- Plasma level of free EPA [2, 8]: 1100 ng/mL
- Plasma level of free EPA [2, 9]: 500 ng/mL
- Plasma level of free EPA [2, 10]: 0 ng/mL
- Plasma level of free EPA [2, 11]: 0 ng/mL
- AUC 0-18 hrs (free EPA) [2, 12]: 7200 ng·h/mL
- Cmax (free EPA) [2, 12]: 1100 ng/mL
- Stability by NMR (amount of sample remaining relative to original sample) ([1]; Day 3): 1 (1 = >95%)
- Stability by NMR (amount of sample remaining relative to original sample) ([1]; Day 14): 1-2
- Stability by NMR (amount of sample remaining relative to original sample) ([1]; Day 30): 4 (4 = <50%)
- Stability by NMR (amount of sample remaining relative to original sample) ([1]; Day 60): 4 (4 = <50%)
SMILES: CC/C=C\C/C=C\C/C=C\C/C=C\C/C=C\CCCC(=O)OCC [EPA ethyl ester]

SMILES: CC/C=C\C/C=C\C/C=C\C/C=C\C/C=C\CCCC(=O)O [EPA-FFA, eicosapentaenoic acid]
- Tmax ([2]; both sexes, Sprague-Dawley, plasma): 0.5 h
- concentration at 0 h ([2]; both sexes, Sprague-Dawley, plasma, 0 h (pre-dose), molar dose equivalent, baseline adjusted, read-out: Plasma level of free EPA): 0 ng/mL
- concentration at 0.25 h ([2]; both sexes, Sprague-Dawley, plasma, 0.25 h (15 min), molar dose equivalent, baseline adjusted, read-out: Plasma level of free EPA): 0 ng/mL
- concentration at 0.5 h ([2]; both sexes, Sprague-Dawley, plasma, 0.5 h (30 min), molar dose equivalent, baseline adjusted, read-out: Plasma level of free EPA): 1300 ng/mL
- concentration at 1 h ([2]; both sexes, Sprague-Dawley, plasma, 1 h (60 min), molar dose equivalent, baseline adjusted, read-out: Plasma level of free EPA): 500 ng/mL
- concentration at 2 h ([2]; both sexes, Sprague-Dawley, plasma, 2 h (120 min), molar dose equivalent, baseline adjusted, read-out: Plasma level of free EPA): 800 ng/mL
- concentration at 4 h ([2]; both sexes, Sprague-Dawley, plasma, 4 h (240 min), molar dose equivalent, baseline adjusted, read-out: Plasma level of free EPA): 1100 ng/mL
- concentration at 8 h ([2]; both sexes, Sprague-Dawley, plasma, 8 h, molar dose equivalent, baseline adjusted, read-out: Plasma level of free EPA): 900 ng/mL
- concentration at 12 h ([2]; both sexes, Sprague-Dawley, plasma, 12 h, molar dose equivalent, baseline adjusted, read-out: Plasma level of free EPA): 300 ng/mL
- concentration at 18 h ([2]; both sexes, Sprague-Dawley, plasma, 18 h, molar dose equivalent, baseline adjusted, read-out: Plasma level of free EPA): 0 ng/mL
- AUC 0-1 hrs (free EPA) [2, 12]: 600 ng·h/mL
- AUC 0-4 hrs (free EPA) [2, 12]: 3100 ng·h/mL
- AUC 0-18 hrs (free EPA) [2, 12]: 10500 ng·h/mL
- Cmax (free EPA) [2, 12]: 1300 ng/mL
